According to patent US6261997A, “Slow release formulations of pesticides” (Yissum Research Development Company of the Hebrew …, priority 1996, dated 2001):

Assays:
[1] = test system: green foxtail; assay: Laboratory soil column leaching bioassay (growth inhibition of sensitive test plants at soil depths); type: in vivo, green foxtail (setaria); wheat also sown; settings: laboratory and field experiments
Experimental: 1. Under laboratory and field conditions, the following bioassay column technique was used to evaluate the leaching of the herbicide using sensitive plants to the given herbicide. Briefly, the experiments have used 100×100×200 mm tin columns filled with soil. The column surface is sprayed with either the commercial formulation of the herbicide or with the organoclay formulated herbicide. The herbicide is added at the same amounts as in the field applications, i.e., 200 g of the active ingredient per 1000 m^2. Then the columns are irrigated with 50 m^3 /[…]. The water is added throughout 5 hours. The columns are left for 24 hr and then sliced along their lengths into two parts (right and left). Two plants, setaria and wheat were sown in each part in two rows and irrigated with water. The height and the weight of the plants 7 days after emergence are used as an indicator of the presence of herbicide at different depths in the soil column.
Alachlor was applied at 2.0 kg/ha followed by irrigation of 500 m^3 /ha. bars indicate standard errors.
Green foxtail growth was used to estimate the presence of matolachlor. Metolachlor formulations were commercial formulation (comm.); metolachlor on clay alone (Mont); metolachlor on clay pre-absorbed with BTMA 0.5 mole/kg clay. The clay based formulations contained 13% metolachlor. […] Bars indicate standard errors.
Green foxtail growth was used to estimate the presence of matolachlor. Metolachlor formulations were commercial formulation (comm.); metolachlor on clay pre-absorbed with PTMA 0.5 mole/kg clay. The clay based formulations contained 13% metolachlor. […] Bars indicate standard errors.

[2] = Adsorption isotherms of herbicide on montmorillonite pre-adsorbed by organic cations; type: physicochemical; settings: for adsorption on montmorillonite pre adsorbed by organic cations: FIGS. 1A and 1B
Experimental: A suitable concentrated solution of the organic cation is added dropwise to a 0.5 or 1% W/W of clay suspension (e.g. Montmorillonite; Sepiolite; Palygorskite; Pillared clays). After separation of the supernatant, the organoclay complex is dried and ground to less than 50 μm. The herbicide is dissolved in a suitable volatile organic solvent e.g. hexane, dichloro methane, acetone, and mixed with the solid organoclay in weight relations of 5-20 g of herbicide to 95-80 g organoclay. The organic solvent is evaporated under gentle reduced pressure and continuous mixing and the resulting herbicide-organoclay complex is ground to less than 50 μm. The pesticide formulation can be further improved by adding water or another solvent to the dried material; removing the loosely bound pesticide, and drying again.
BTMS 0.8 mole/kg, BTEA 0.8 mole/kg, BTEA 0.5 mole/kg or HDTMA 0.5 mole/kg clay. Bars indicate standard errors.

CCCC[N+](CCCC)(CCCC)Cc1ccccc1.[Cl-] [BTBA, benzyl tributyl ammonium chloride]
inhibition of movement / leaching of the herbicide in the soil profile [1]: significant inhibition of herbicide leaching has been achieved

CC[N+](CC)(CC)Cc1ccccc1.[Br-] [BTEA, benzyltriethyl ammonium bromide]
inhibition of movement / leaching of the herbicide in the soil profile [1]: significant inhibition of herbicide leaching has been achieved

C[N+](C)(C)Cc1ccccc1.[Cl-] [BTMA, benzyltrimethyl ammonium chloride]
inhibition of movement / leaching of the herbicide in the soil profile [1]: significant inhibition of herbicide leaching has been achieved

CCOCN(C(=O)CCl)c1c(C)cccc1CC [acetochlor]
adsorption on montmorillonite pre adsorbed by organic cations [2]: enhanced adsorption
adsorption on montmorillonite preadsorbed by PTMA ([2]; PTMA 0.5 mmol/g clay): Enhanced adsorption
inhibition of movement / leaching of the herbicide in the soil profile [1]: The same trend was also found

CCc1cccc(CC)c1N(COC)C(=O)CCl [alachlor]
adsorption on montmorillonite pre adsorbed by organic cations [2]: enhanced adsorption

CNc1cnn(-c2cccc(C(F)(F)F)c2)c(=O)c1Cl [norflurazon]
inhibition of movement / leaching of the herbicide in the soil profile [1]: The same trend was also found
